In US20230381142A1, “ANTILEISHMANIAL COMPOUNDS, COMPOSITIONS AND USE THEREOF” (TRUSTEES OF BOSTON UNIVERSITY, priority 2022, published 2023):

What was measured:
[1] = test system: L. donovani intracellular amastigotes infecting THP-1 cells; assay: High content intracellular amastigote assay in THP-1 cells (Assay Conditions B; CDIPD screen); assay type: cell-based, Leishmania donovani; conditions: 10 μM; THP-1 cells; footnote b
Method: (§1) Assay Conditions B: THP-1 cells (human acute monocytic leukemia cell line—ATCC TIB202) were grown in RPMI supplemented with 10% Fetal Bovine Serum (FBS) and 50 μM 2-mercaptoethanol at 37° C. in 5% CO2. THP-1 were seeded in microwell plates at 5×10^5 cells/mL density and treated with 0.1 μM phorbol myristate acetate (PMA, Sigma) at 37° C. for 48 h for differentiation into adherent, non-dividing macrophages. After activation by PMA, cells were washed and incubated with complete RPMI medium containing stationary phase Leishmania promastigotes (L. major: strain LV39; L. donovani, strain 1S/Cl2D) at a 1:15 parasite-cell ratio. Compounds were added and incubated at 37° C. for 72 h. Cells were then washed with phosphate-buffered saline (PBS), fixed for 30 minutes with 4% formaldehyde, rinsed again with PBS, stained for 2 h with 4′,6′-diamidino-2-phenylindole (DAPI 300 nM) and finally washed with PBS. In a collaborative effort to identify new antileishmanial chemotypes with minimal host cell cytotoxicity, compounds from the Boston University Center for Molecular Discovery (BUCMD) screening collection were assessed in a phenotypic, high content primary screen at the University of California's Center for Discovery and Innovation in Parasitic Diseases (CDIPD) for the ability to inhibit growth of L. donovani intracellular amastigotes infecting THP-1 cells. […] Dose-response testing in L. donovani (both intracellular amastigotes and promastigotes) confirmed concentration-dependent growth inhibition of both morphologies of the parasite at low micromolar EC50 values for both compounds (Table 1).

[2] = test system: THP-1 cells; assay: Host THP-1 cell cytotoxicity in the CDIPD high content screen; assay type: cell-based, human; conditions: Homo sapiens, THP-1; 10 μM; footnote b; read-out: THP-1 host cell % growth inhibition at 10 μM
Method: as §1

[3] = UCSD infection assay, host cell cytotoxicity (CC50); assay type: cell-based; conditions: mouse, B10R host cells infected with L. donovani; footnote d
Method: (§2) Assay Conditions D: B10R cells (CVCL_0155) were seeded at 300 cells/well, and L. donovani WT promastigotes in stationary phase (7th day after passage) were added at 6,000 parasites/well (ratio of 20 parasites/cell). Both cells and parasites were seeded in DMEM High-Glucose medium (Gibco, cat. no. 11995065) containing 5% Fetal Bovine Serum (Sigma-Aldrich, cat. no. F2442) and 1% Penicillin-Streptomycin (Gibco, cat. no. 15140122). Cells and parasites were incubated in the presence of the compounds for 72 h at 37° C. and 5% C02. Plates were then fixed with 4% formaldehyde solution for at least 1 h, then washed with 1×PBS and stained with 5 μg/mL DAPI. Plates were read using an ImageXpress microscope (Molecular Devices) and analyzed by MetaXpress software (Molecular Devices) using a custom module optimized for this assay. […] Compounds were tested in a 10-point 2-fold serial dilution in 3 technical replicates, and 2 biological replicates. After 72 h, plates were fixed and stained with DAPI as described above. Images were acquired on an ImageXpress microscope, and analyzed using the MetaXpress custom module.
as §2, with “Compounds were obtained as 0.2 μmoles of dried film for primary single point screening. Each compound was diluted in DMSO to 10 μM final testing concentration. These compounds were tested in 2 biological replicates. The compounds were pre-spotted onto 384-well assay plates in single concentration.” for “Assay Conditions D:”, “CO2.” for “C02.”, “module. The DRCs were plotted, half-effective concentration (EC50) and half-cytotoxic concentration (CC50) were calculated using GraphPad Prism Software, version 6.05 (GraphPad Software, San Diego, CA).” for “module.”

[4] = test system: L. donovani intracellular amastigotes in B10R cells; assay: UCSD L. donovani infection assay (Assay Conditions D); assay type: cell-based; conditions: B10R cells; footnote d
Method in brief: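 B10R cells (300/well) infected with stationary-phase L. donovani WT promastigotes at 20 parasites/cell in DMEM high-glucose, 5% FBS, with compounds 72 h at 37° C., 5% CO2. Formaldehyde-fixed, DAPI-stained, imaged by high-content microscopy; 10-point 2-fold dilutions (screen at 10 μM) gave EC50 and host CC50.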

[5] = test system: L. braziliensis (strain BA788) in J774 cells; assay: J774 luciferase infection assay (Assay Conditions E); assay type: cell-based, Leishmania braziliensis; conditions: footnote e
Method: Assay Conditions E: J774 cells (ATCC J774A.1 were grown in DMEM supplemented with 10% Fetal Bovine Serum (FBS) and 1% Penicillin-Streptomycin at 37° C. in 5% CO2. Leishmania parasites expressing luciferase and GFP were grown as described in Front. Cell. Infect. Microbiol (2019) 9:237. J774 cells were seeded in microwell plates at 3×10^5 cells/mL density. Cells were washed with PBS and incubated with complete DMEM medium containing stationary phase Leishmania promastigotes (L. major: strain Friedlin; L. braziliensis, strain BA788) at a 1:10 parasite-cell ratio for 24 h. Cells were washed with PBS. Cells and compounds were incubated for 48 h at 37° C. and 5% C02. Compounds were tested in 8-point 2-fold serial dilution in 4 technical replicates, and 2 biological replicates. After 48 h, OneTiterGlo (Promega) (100 μl) was added to each well. Plates were incubated for 15 min and bioluminescence was measured using a plate reader (Molecular Devices). Effective concentration inducing 75% activity (EC75) was calculated using GraphPad Prism Software (version 9.0).

| Structure (SMILES) | L. donovani amastigotes % GI at 10 μM (THP-1 cells) [1] | inhibition at 10 µM [2] | CC50 at 72 h [3] | L. donovani amastigotes EC75 (B10R cells) [4] | L. braziliensis amastigotes EC75 (J774 cells) [5] |
| --- | --- | --- | --- | --- | --- |
| Cc1ccc(C2c3c(CC(C)C)n[nH]c3C(=O)N2c2ccccc2)cc1 (stereo not drawn) [CMLD007424] | 81.0% | 35% | – | – | – |
| COc1ccc(N2C(=O)c3[nH]nc(C)c3C2c2ccc(F)cc2)cc1 (stereo not drawn) [CMLD007221] | 0.0% | < 10% | – | – | – |
| COc1ccc(N2C(=O)c3[nH]nc(C(C)C)c3C2c2ccc(F)cc2)cc1 (stereo not drawn) [CMLD007188] | 0.0% | < 10% | – | – | – |
| COc1ccc(N2C(=O)c3[nH]nc(C(C)C)c3C2c2ccccc2)cc1 (stereo not drawn) [CMLD007286] | 0.0% | < 10% | – | – | – |
| CC(C)Cc1n[nH]c2c1C(c1ccccc1)N(c1ccccc1)C2=O (stereo not drawn) [CMLD007421] | 0.0% | < 10% | – | – | – |
| COc1ccc(N2C(=O)c3[nH]nc(C)c3C2c2ccc(C)cc2)cc1 (stereo not drawn) [CMLD007247] | 0.0% | < 10% | – | – | – |
| Cc1cc(N2C(=O)c3[nH]nc(CC(C)C)c3C2c2ccccc2Cl)ccn1 (stereo not drawn) [BUCMD00639] | – | – | 20 µM | 0.4 µM | >10 µM |
| CC(C)Cc1n[nH]c2c1C(c1ccc(F)cc1)N(c1ccccc1)C2=O (stereo not drawn) [CMLD007425] | 15.0% | 13% | – | – | – |
| COc1ccc(N2C(=O)c3[nH]nc(C)c3C2c2ccccc2)cc1 (stereo not drawn) [CMLD007219] | 0.0% | < 10% | – | – | – |
| COc1ncc(N2C(=O)c3[nH]nc(CC(C)C)c3C2c2ccc(F)cc2C)cc1F (stereo not drawn) [BUCMD00729] | – | – | 6.31 µM | 0.4 µM | 2.0 µM |
| COc1ccc(N2C(=O)c3[nH]nc(C(C)C)c3C2c2ccc(C)cc2)cc1 (stereo not drawn) [CMLD007169] | 0.0% | < 10% | – | – | – |
